Reference: PubChem BioAssay AID256 (DTP/NCI, 2004)
Where “and” joins values, the source holds several entries; their conditions need not be identical. Equal entries are not always repeated. Toxic doses and inconclusive results are not listed. The calls were made as follows: active = survival T/C of 150% or more; inactive = T/C below 125% in these data.

Tested on: CD2F1 mice, L1210 leukemia ip, survival T/C
Assay: NCI In Vivo Anticancer Drug Screen. Data for tumor model L1210 Leukemia (intraperitoneal) in CD2F1 (CDF1) mice
Conditions: higher = longer survival
Summary of the method: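 In this screen, transplantable tumors were grown in mice given either the compound or its vehicle. Results were expressed as the treated measurement relative to the control measurement.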

[1] = endpoint: mean survival time, dose: 100.0 mg/kg/injection, schedule: Q01DX009 (ip), vehicle: saline with Tween-80
[2] = endpoint: mean survival time, dose: 200.0 mg/kg/injection, schedule: Q01DX009 (ip), vehicle: saline with Tween-80
[3] = endpoint: mean survival time, dose: 400.0 mg/kg/injection, schedule: Q01DX009 (ip), vehicle: saline with Tween-80
[4] = endpoint: mean survival time, dose: 100.0 mg/kg/injection, schedule: Q01DX001 (ip), vehicle: saline with Tween-80

Measured: T/C

O=C1CCNC(=O)N1
inactive: [1] 93 % of control | endpoint: mean survival time, dose: 100.0 mg/kg/injection, schedule: Q04DX003 (ip), vehicle: saline with Tween-80 106 % of control | [2] 98 % of control | endpoint: mean survival time, dose: 200.0 mg/kg/injection, schedule: Q04DX003 (ip), vehicle: saline with Tween-80 101 % of control | [3] 93 % of control | endpoint: mean survival time, dose: 400.0 mg/kg/injection, schedule: Q04DX003 (ip), vehicle: saline with Tween-80 95 % of control

COc1cc(Cl)ccc1NC(=O)Oc1ccc(Br)cc1
inactive: endpoint: mean survival time, dose: 50.0 mg/kg/injection, schedule: Q01DX009 (ip), vehicle: saline with Tween-80 92 % of control | [1] 96 % of control | [2] 87 % of control

CCOC(=O)/C=C/SCCCC(=O)O
inactive: [4] 100 % of control | endpoint: mean survival time, dose: 200.0 mg/kg/injection, schedule: Q01DX001 (ip), vehicle: saline with Tween-80 105 % of control | endpoint: mean survival time, dose: 400.0 mg/kg/injection, schedule: Q01DX001 (ip), vehicle: saline with Tween-80 95 % of control

CN(C)N=Nc1cc(C#N)cc(C#N)c1
inactive: endpoint: mean survival time, dose: 79.0 mg/kg/injection, schedule: Q01DX009 (ip), vehicle: Klucel (hydroxypropylcellulose) (HPC) 110 % of control | endpoint: mean survival time, dose: 118.0 mg/kg/injection, schedule: Q01DX009 (ip), vehicle: Klucel (hydroxypropylcellulose) (HPC) 110 % of control | endpoint: mean survival time, dose: 177.0 mg/kg/injection, schedule: Q01DX009 (ip), vehicle: Klucel (hydroxypropylcellulose) (HPC) 119 % of control | endpoint: mean survival time, dose: 266.0 mg/kg/injection, schedule: Q01DX009 (ip), vehicle: Klucel (hydroxypropylcellulose) (HPC) 113 % of control | endpoint: mean survival time, dose: 400.0 mg/kg/injection, schedule: Q01DX009 (ip), vehicle: Klucel (hydroxypropylcellulose) (HPC) 89 % of control

O=C(O)C1C2CCC1C(O)C2 (configuration not stated)
inactive: [1] 94 % of control | [2] 94 % of control | [3] 88 % of control

O/N=C1\CN2CCC1CC2
inactive: [4] 91 % of control

CN(C)N=Nc1ccccc1C(=O)NNC(N)=S
inactive: endpoint: mean survival time, dose: 18.75 mg/kg/injection, schedule: Q01DX009 (ip), vehicle: Klucel (hydroxypropylcellulose) (HPC) 98 % of control and 103 % of control | endpoint: mean survival time, dose: 37.5 mg/kg/injection, schedule: Q01DX009 (ip), vehicle: Klucel (hydroxypropylcellulose) (HPC) 121 % of control and 101 % of control | endpoint: mean survival time, dose: 75.0 mg/kg/injection, schedule: Q01DX009 (ip), vehicle: Klucel (hydroxypropylcellulose) (HPC) 107 % of control and 109 % of control | endpoint: mean survival time, dose: 150.0 mg/kg/injection, schedule: Q01DX009 (ip), vehicle: Klucel (hydroxypropylcellulose) (HPC) 115 % of control and 116 % of control | endpoint: mean survival time, dose: 300.0 mg/kg/injection, schedule: Q01DX009 (ip), vehicle: Klucel (hydroxypropylcellulose) (HPC) 104 % of control and 107 % of control

COc1ccc2[nH]c3c(c2c1)CNCC3
inactive: endpoint: mean survival time, dose: 50.0 mg/kg/injection, schedule: Q01DX001 (ip), vehicle: saline 106 % of control | endpoint: mean survival time, dose: 100.0 mg/kg/injection, schedule: Q01DX001 (ip), vehicle: saline 102 % of control | endpoint: mean survival time, dose: 200.0 mg/kg/injection, schedule: Q01DX001 (ip), vehicle: saline 113 % of control

CC1(C)CCC2(CC1)CC(=O)OC2=O
inactive: [1] 109 % of control | [2] 105 % of control | [3] 100 % of control

CC1=CC2c3cccc4[nH]cc(c34)CC2N(C)C1 (configuration not stated)
inactive: endpoint: median survival time, dose: 1.25 mg/kg/injection, schedule: Q01DX009 (ip), vehicle: suspension in saline 101 % of control | endpoint: median survival time, dose: 2.5 mg/kg/injection, schedule: Q01DX009 (ip), vehicle: suspension in saline 101 % of control | endpoint: median survival time, dose: 5.0 mg/kg/injection, schedule: Q01DX009 (ip), vehicle: suspension in saline 101 % of control | endpoint: median survival time, dose: 10.0 mg/kg/injection, schedule: Q01DX009 (ip), vehicle: suspension in saline 101 % of control | endpoint: median survival time, dose: 20.0 mg/kg/injection, schedule: Q01DX009 (ip), vehicle: suspension in saline 98 % of control

O=C(CC(=O)c1ccccc1)c1ccccc1.O=C(CC(=O)c1ccccc1)c1ccccc1.[Pd]
inactive: endpoint: mean survival time, dose: 3.13 mg/kg/injection, schedule: Q04DX003 (ip), vehicle: distilled water + Tween-80 96 % of control | endpoint: mean survival time, dose: 6.25 mg/kg/injection, schedule: Q04DX003 (ip), vehicle: distilled water + Tween-80 98 % of control | endpoint: mean survival time, dose: 12.5 mg/kg/injection, schedule: Q04DX003 (ip), vehicle: distilled water + Tween-80 94 % of control | endpoint: mean survival time, dose: 25.0 mg/kg/injection, schedule: Q04DX003 (ip), vehicle: distilled water + Tween-80 98 % of control | endpoint: mean survival time, dose: 50.0 mg/kg/injection, schedule: Q04DX003 (ip), vehicle: distilled water + Tween-80 93 % of control | endpoint: mean survival time, dose: 100.0 mg/kg/injection, schedule: Q04DX003 (ip), vehicle: distilled water + Tween-80 89 % of control | endpoint: mean survival time, dose: 200.0 mg/kg/injection, schedule: Q04DX003 (ip), vehicle: distilled water + Tween-80 107 % of control

C#CCOC(=O)Nc1ccccc1Cl
inactive: endpoint: mean survival time, dose: 100.0 mg/kg/injection, schedule: Q04DX003 (ip), vehicle: Klucel (hydroxypropylcellulose) (HPC) 93 % of control | endpoint: mean survival time, dose: 200.0 mg/kg/injection, schedule: Q04DX003 (ip), vehicle: Klucel (hydroxypropylcellulose) (HPC) 105 % of control | endpoint: mean survival time, dose: 400.0 mg/kg/injection, schedule: Q04DX003 (ip), vehicle: Klucel (hydroxypropylcellulose) (HPC) 98 % of control
